Experimental data published in patent publication US11701376B2, “Nutritional compositions comprising human milk oligosaccharides and nucleotides and uses thereof for treating and/or preventing enteric viral infection” (priority 2010, dated 2023).

Tests used:
interleukin 10 (IL-10) = experiment: IL-10 in supernatants of peripheral blood mononuclear cells with or without RSV (Example 49); assay type: cell-based, Human; conditions: in the presence or absence of RSV
Procedure: (§1) Specifically, either 3′SL or 6′SL is added, at concentrations of 0.1 mg/mL, 0.2 mg/mL, or 0.5 mg/mL to fresh peripheral blood mononuclear cells and incubated at 37° C. in 5% CO2 to pretreat the cells for approximately 24 hours. LNnT is added, at concentrations of 0.1 mg/mL, 0.2 mg/mL, or 1 mg/mL to fresh peripheral blood mononuclear cells and incubated at 37° C. in 5% CO2 to pretreat the cells for approximately 24 hours. Lactose is included as a carbohydrate control. Matched endotoxin unit concentration controls are included to allow differentiation of ingredient effects from inherent low levels of endotoxin. Some variables are then incubated with RSV at a multiplicity of infection (MOI) of 0.1 for approximately 1 hour at 37° C. in 5% in CO2. Uninfected control variables are incubated with medium for approximately 1 hour at 37° C. in 5% CO2. Supernatants are collected at 24 and 48 hours post-infection.
Cytokines are measured in supernatants for each variable at 24 and 48 hours to assess the effects of HMOs on the early immune response to RSV. Cytokines are measured using custom Bio-Plex Human cytokine kits from Bio-Rad. […] A positive correlation exists between RSV clinical disease severity in children (as measured by: length of hospital stay, fever, and number of days supplemental O2 is required) and serum IP-10. […]

[1] = test system: interferon-inducible protein 10 (IP-10); experiment: IP-10 in supernatants of RSV-infected peripheral blood mononuclear cells (Example 49); assay type: cell-based, Human; conditions: for IP-10 in virus-infected variables, both donors: RSV MOI 0.1, 0.1-0.5 mg/mL (LNnT 0.1-1 mg/mL); for IP-10 level relative to uninfected controls: RSV-infected PBMC; for dampening virus-induced inflammation as measured by a decrease in IP-10, comparison: compared with 3′SL; for reducing inflammation caused by RSV: pretreatment for 24 hours
Procedure: as §1
(§2) Cytokines are measured in supernatants for each variable at 24 and 48 hours to assess the effects of HMOs on the early immune response to RSV. Cytokines are measured using custom Bio-Plex Human cytokine kits from Bio-Rad. Results for interferon-inducible protein 10 (IP-10, also known as CXCL 10) are shown in FIGS. 3 and 4 for 3′SL and 6′SL, and in FIGS. 5 and 6 for LNnT. IP-10 is a CXC chemokine that attracts, binds to and activates the CXCR3 receptor on natural killer cells and memory T cells. IP-10 is expressed by monocytes and a number of other cells, and is induced by interferon. A positive correlation exists between RSV clinical disease severity in children (as measured by: length of hospital stay, fever, and number of days supplemental O2 is required) and serum IP-10. Therefore, a decrease in IP-10 signals a decrease in severity of RSV disease experienced.

[2] = test system: respiratory syncytial virus (RSV); experiment: In vitro inhibition of viral infectivity, RSV (Example 46); assay type: cell-based; conditions: co-incubation of virus with HMO at 1 or 10 mg/mL
Procedure: In this Example, the effect of purified human milk oligosaccharides (HMO) on in vitro inhibition of viral infectivity is analyzed.
Samples are prepared by co-incubation of a uniform virus dose of from about 500 units/mL to about 1,000 units/mL of one of three respiratory viruses: (1) respiratory syncytial virus (RSV); (2) human parainfluenza virus (HPIV3); or (3) H1N1 influenza virus with one of the following HMOs: (1) 3′-sialyllactose (3′SL); (2) 6′-sialyllactose (6′SL); (3) 3′-fucosyllactose (3′FL); (4) 2′-fucosyllactose (2′FL); (5) lacto-N-neotetraose (LNnT); or (6) sialic acid (SA). The HMOs are added at concentrations of either 1 mg/mL or 10 mg/mL.

[3] = test system: monocyte-derived cytokines; experiment: Monocyte-derived cytokines in peripheral blood mononuclear cells with or without RSV (Example 49); assay type: cell-based, Human
Procedure: as §1, §2

H1N1 influenza virus [4] = assay type: cell-based; conditions: for IC50 (mg HMO/mL) H1N1 Influenza: co-incubation of virus with HMO at 1 or 10 mg/mL
rotavirus = experiment: NSP4 mRNA expression in rotavirus-treated ileal loops of piglets (Example 50); assay type: in vivo; conditions: HMO about 2 mg/mL plus rotavirus, 6 hours, vs RV and media
Procedure: Specifically, HMO and nucleotide treatment within the ileal lumen of both healthy and acutely rotavirus-infected piglets is analyzed.
Two groups of piglets (both n=9) are fed from age 48 hours to age 21 days either a low nucleotide formula comprising about 72 mg/L of a nucleotide mixture or a high nucleotide formula comprising about 320 mg/L of a nucleotide mixture.
At day 21, a midline laparotomy is performed and six loops of ilium are isolated in situ. Each loop is about 10 cm long and is followed by an inter-loop segment of about 2 cm. […]
The following treatments are injected into the loops: media; LNnT; an acidic HMO mixture comprising about 40 wt % 6′SL, about 10 wt % 3′SL, and about 50 wt % sialic acid; media and rotavirus; LNnT and rotavirus; and the acidic HMO mixture comprising about 40 wt % 6′SL, about 10 wt % 3′SL, and about 50 wt % sialic acid and rotavirus. […] Each loop is treated for 6 hours, and post-treatment reverse transcriptase products from ilium mucosal cells are analyzed by quantitative real-time PCR in TaqMan gene expression assays of the target genes NSP4, IL-8, and TNF-α. […] The expression levels of genes of interest are standardized to RPL19 mRNA and expressed as fold differences which correspond to a ratio to the mean value for the control group.

[5] = test system: human parainfluenza virus (HPIV3); assay type: cell-based; conditions: co-incubation of virus with HMO at 1 or 10 mg/mL
H1N1 influenza virus [6] = assay type: cell-based; conditions: HMO at 10 mg/mL, MDCK cells, FIG. 1
[7] = in the presence or absence of the virus

CC(=O)N[C@H]1[C@H](O[C@H]2[C@@H](O)[C@@H](CO)O[C@@H](O[C@H]3[C@H](O)[C@@H](O)C(O)O[C@@H]3CO)[C@@H]2O)O[C@H](CO)[C@@H](O[C@@H]2O[C@H](CO)[C@H](O)[C@H](O)[C@H]2O)[C@@H]1O (mixture of isomers) [LNnT, lacto-N-neotetraose]
IL-10 concentration (interleukin 10 (IL-10)): increases IL-10 concentration in a dose-dependent manner
IP-10 in virus-infected variables, both donors ([1]; 24 hours pretreatment): clearly downregulates IP-10
IP-10 level relative to uninfected controls [1]: reduce IP-10 to levels found in uninfected controls
dampening virus-induced inflammation as measured by a decrease in IP-10, comparison [1]: more effective than 3′SL
reducing inflammation caused by RSV [1]: effective in reducing inflammation caused by RSV
IC50 (mg HMO/mL) RSV [2]: >10 mg HMO/mL
immunomodulation, production of monocyte-derived cytokines [3, 7]: immunomodulatory
IC50 (mg HMO/mL) H1N1 Influenza (H1N1 influenza virus [4]): >10 mg HMO/mL
NSP4 expression (rotavirus; high nucleotide formula fed group (about 320 mg/L)): reduced NSP4 expression
NSP4 expression (rotavirus; low nucleotide formula fed group (about 72 mg/L)): reduced NSP4 expression

CC(=O)N[C@H]1[C@H]([C@H](O)[C@H](O)CO)O[C@@](O[C@H]2[C@@H](O)[C@@H](CO)O[C@@H](O[C@H]3[C@H](O)[C@@H](O)C(O)O[C@@H]3CO)[C@@H]2O)(C(=O)O)C[C@@H]1O (some centres unmarked) [3′SL, 3′-sialyllactose]
IP-10 in virus-infected variables, both donors ([1]; 24 hours pretreatment): dampen RSV-induced IP-10
RSV-induced IP-10, Donor B ([1]; Donor B, 24 hours pretreatment, RSV MOI 0.1): not effective
RSV-induced IP-10, Donor E ([1]; Donor E, 24 hours pretreatment, RSV MOI 0.1): downregulates RSV-induced IP-10
reducing inflammation caused by RSV [1]: effective in reducing inflammation caused by RSV
IC50 (mg HMO/mL) RSV [2]: >10 mg HMO/mL
IC50 (mg HMO/mL) HPIV3 [5]: >10 mg HMO/mL
immunomodulation, production of monocyte-derived cytokines [3, 7]: immunomodulatory
anti-viral activity, H1N1 influenza virus (H1N1 influenza virus [4]; HMO at 1 mg/mL): inhibited
IC50 (mg HMO/mL) H1N1 Influenza (H1N1 influenza virus [4]): ~5 mg HMO/mL

CC(=O)N[C@H]1[C@H]([C@H](O)[C@H](O)CO)O[C@@](OC[C@H]2O[C@@H](O[C@H]3[C@H](O)[C@@H](O)[C@H](O)O[C@@H]3CO)[C@H](O)[C@@H](O)[C@H]2O)(C(=O)O)C[C@@H]1O [6′SL, 6′-sialyllactose]
IL-10 concentration (interleukin 10 (IL-10)): increases interleukin 10 (IL-10) concentration in a dose-dependent manner
IP-10 in virus-infected variables, both donors ([1]; 24 hours pretreatment): clearly downregulates IP-10
IP-10 level relative to uninfected controls [1]: reduce IP-10 to levels found in uninfected controls
dampening virus-induced inflammation as measured by a decrease in IP-10, comparison [1]: more effective than 3′SL
reducing inflammation caused by RSV [1]: effective in reducing inflammation caused by RSV
IC50 (mg HMO/mL) RSV [2]: >10 mg HMO/mL
IC50 (mg HMO/mL) HPIV3 [5]: >10 mg HMO/mL
immunomodulation, production of monocyte-derived cytokines ([3]; in the absence of the virus): immunomodulatory
inhibition of virus infectivity (H1N1 influenza virus [6]): approximately 60%
IC50 (mg HMO/mL) H1N1 Influenza (H1N1 influenza virus [4]): ~10 mg HMO/mL
